ChEMBL document CHEMBL4831501, “Discovery of a potent and selective inhibitor of histone lysine demethylase KDM4D” (Eur J Med Chem, 2021)

What was measured:
[1] = biological target: T1, Lysine-specific demethylase 4D (Homo sapiens) (UniProt Q6B0I6); test: Inhibition of human KDM4D expressed in Escherichia coli BL21 (DE3) at 1 uM using biotinylated H3-derived peptide and 2-OG as substrate preincubated for 15 mins followed by substrate addition and measured after 1 hr by AlphaLISA assay; conditions: time 75.0 min
T1 sequence (whole entry): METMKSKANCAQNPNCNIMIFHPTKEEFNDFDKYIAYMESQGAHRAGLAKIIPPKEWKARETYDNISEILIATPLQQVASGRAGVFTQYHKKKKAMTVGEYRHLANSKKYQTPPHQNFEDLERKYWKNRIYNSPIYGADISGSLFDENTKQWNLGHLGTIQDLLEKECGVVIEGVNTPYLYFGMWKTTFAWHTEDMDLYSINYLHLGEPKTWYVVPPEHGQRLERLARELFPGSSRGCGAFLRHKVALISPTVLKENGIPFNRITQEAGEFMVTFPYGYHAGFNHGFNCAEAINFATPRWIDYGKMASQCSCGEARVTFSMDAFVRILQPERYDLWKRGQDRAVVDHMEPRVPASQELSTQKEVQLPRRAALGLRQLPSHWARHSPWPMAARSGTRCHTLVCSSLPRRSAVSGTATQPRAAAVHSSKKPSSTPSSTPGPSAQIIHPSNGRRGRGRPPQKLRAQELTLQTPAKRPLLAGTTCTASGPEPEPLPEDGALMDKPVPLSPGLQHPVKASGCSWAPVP

[2] = biological target: T2, Lysine-specific demethylase 4D (Homo sapiens, UniProt Q6B0I6); test: Inhibition of human KDM4D expressed in Escherichia coli BL21 (DE3) using biotinylated H3-derived peptide and 2-OG as substrate preincubated for 15 mins followed by substrate addition and measured after 1 hr by AlphaLISA assay
T2 sequence (Q6B0I6 whole entry): T1 sequence (whole entry)

Compound | inhibition [1] [%] | IC50 [2] [nM]
CC(C)C(=O)N[C@@H]1CCN(C(c2ccncc2)c2cc3c(cc2O)OCO3)C1 (stereo partly drawn) | 96.5 | 220
CC(C)(C)NC(=S)N[C@@H]1CCN(C(c2ccncc2)c2cc3c(cc2O)OCO3)C1 (stereo partly drawn) | 96.4 | 171
O=C(N[C@@H]1CCN(C(c2ccncc2)c2cc3c(cc2O)OCO3)C1)c1ccccc1F (stereo partly drawn) | 96.6 | 437
CC(C)(C)OC(=O)N[C@@H]1CCN(C(c2ccc(-c3ccncc3)cn2)c2cc3c(cc2O)OCO3)C1 (stereo partly drawn) | 96.6 | 126
CN(C(=O)OC(C)(C)C)[C@@H]1CCN(C(c2ccncc2)c2cc3c(cc2O)OCO3)C1 (stereo partly drawn) | 87.6 | 642
COc1ccc(O)c(C(c2ccncc2)N2CC[C@@H](NC(=O)OC(C)(C)C)C2)c1 (stereo partly drawn) | -3.27 | –
CC(C)(C)OC(=O)N[C@@H]1CCN(C(c2ccncc2)c2cc3c(cc2O)OCO3)C1 (stereo partly drawn) | 97.2 | 135
CC(C)(C)OC(=O)N[C@@H]1CCN(C(c2cc3c(cc2O)OCO3)c2ccc(F)cc2F)C1 (stereo partly drawn) | 97.3 | 173
CC(C)(C)OC(=O)N[C@@H]1CCN(C(c2ccc(-c3cccnc3)cc2)c2cc3c(cc2O)OCO3)C1 (stereo partly drawn) | 99.2 | 220
CC(C)(C)OC(=O)N[C@@H]1CCN(C(c2ccncc2)c2cc3c(cc2O)OC(F)(F)O3)C1 (stereo partly drawn) | 0.88 | –
COc1cc(O)c(C(c2ccncc2)N2CC[C@@H](NC(=O)OC(C)(C)C)C2)cc1F (stereo partly drawn) | 12.9 | –
O=C(NC[C@@H]1CCN(C(c2ccncc2)c2cc3c(cc2O)OCO3)C1)C1CC1 (stereo partly drawn) | 93.6 | 193
O=C(NC1CC1)[C@@H]1CCN(C(c2ccncc2)c2cc3c(cc2O)OCO3)C1 (stereo partly drawn) | 98.3 | 546
CC(C)(C)OC(=O)N[C@@H]1CCN(C(c2ccc(F)cc2)c2cc3c(cc2O)OCO3)C1 (stereo partly drawn) | 98.2 | 192
CC(C)(C)OC(=O)N[C@@H]1CCN(C(c2cnccn2)c2cc3c(cc2O)OCO3)C1 (stereo partly drawn) | 99 | 552
CC(C)(C)OC(=O)N[C@@H]1CCN(C(c2ccc(-n3cccc3)cc2)c2cc3c(cc2O)OCO3)C1 (stereo partly drawn) | 95.6 | 444
CCOc1ccccc1C(=O)N[C@@H]1CCN(C(c2ccncc2)c2cc3c(cc2O)OCO3)C1 (stereo partly drawn) | 94.4 | 342
CC(C)(C)OC(=O)N[C@@H]1CCN(C(c2ccc(C#N)c(F)c2)c2cc3c(cc2O)OCO3)C1 (stereo partly drawn) | 98.7 | 382
CN(C)[C@@H]1CCN(C(c2ccncc2)c2cc3c(cc2O)OCO3)C1 (stereo partly drawn) | 95 | 200
CC(=O)N[C@@H]1CCN(C(c2ccncc2)c2cc3c(cc2O)OCO3)C1 (stereo partly drawn) | 77.5 | 519
COc1cccc(C(=O)N[C@@H]2CCN(C(c3ccncc3)c3cc4c(cc3O)OCO4)C2)c1 (stereo partly drawn) | 99.4 | 546
O=C(N[C@@H]1CCN(C(c2ccncc2)c2cc3c(cc2O)OCO3)C1)C1CCCCC1 (stereo partly drawn) | 99.2 | 528

Compound | inhibition [1] [%] | IC50 [2] [nM]
CC(C)(C)OC(=O)N[C@@H]1CCN(C(c2ccncc2)c2cc3c(cc2O)OC(C)(C)O3)C1 (stereo partly drawn) | 76 | 609
CC(C)(C)C(=O)N[C@@H]1CCN(C(c2ccncc2)c2cc3c(cc2O)OCO3)C1 (stereo partly drawn) | 98.7 | 664
CC(C)(C)OC(=O)N[C@@H]1CCN(C(c2cccc(C#N)c2)c2cc3c(cc2O)OCO3)C1 (stereo partly drawn) | 96.5 | 482
O=C(N[C@@H]1CCN(C(c2ccncc2)c2cc3c(cc2O)OCO3)C1)c1ccccc1Cl (stereo partly drawn) | 94.2 | 187
CC(C)(C)OC(=O)N[C@@H]1CCN(C(c2ccncc2)c2ccc(C(C)(C)C)cc2O)C1 (stereo partly drawn) | -8.59 | –
CC(C)(C)OC(=O)N[C@@H]1CCN(C(c2ccc(C#N)cc2)c2cc3c(cc2O)OCO3)C1 (stereo partly drawn) | 99.4 | 141
CC(C)(C)OC(=O)N[C@@H]1CCN(C(c2cc3c(cc2O)OCO3)c2ccc(F)cc2Cl)C1 (stereo partly drawn) | 98.5 | 117
CC(C)(C)OC(=O)N[C@@H]1CCN(C(c2ccncc2)c2cc3c(cc2O)OCCO3)C1 (stereo partly drawn) | 2.78 | –
CC(C)(C)OC(=O)N[C@@H]1CCN(C(c2cc3c(cc2O)OCO3)C2CCCCC2)C1 (stereo partly drawn) | -7.31 | –
CC(C)(C)OC(=O)N[C@@H]1CCN(C(c2cccc(-c3ccccn3)c2)c2cc3c(cc2O)OCO3)C1 (stereo partly drawn) | 91.4 | 285
CC(C)(C)OC(=O)N[C@@H]1CCN(C(c2ccc(-c3ccccn3)cc2)c2cc3c(cc2O)OCO3)C1 (stereo partly drawn) | 99.8 | 145
CC(C)(C)OC(=O)N[C@@H]1CCN(C(c2cc3c(cc2O)OCO3)c2ccc(Cl)cc2F)C1 (stereo partly drawn) | 99.3 | 111
Cn1nccc1C(c1cc2c(cc1O)OCO2)N1CC[C@@H](NC(=O)OC(C)(C)C)C1 (stereo partly drawn) | 94.6 | 509
CC(C)(C)OC(=O)N[C@@H]1CCN(C(c2cccc(-c3ccncc3)c2)c2cc3c(cc2O)OCO3)C1 (stereo partly drawn) | 95.6 | 223
COc1ccc(OC)c(C(c2ccncc2)N2CC[C@@H](NC(=O)OC(C)(C)C)C2)c1O (stereo partly drawn) | 97.5 | 212
O=C(N[C@@H]1CCN(C(c2ccncc2)c2cc3c(cc2O)OCO3)C1)c1cccc(F)c1 (stereo partly drawn) | 99.7 | 351
O=S(=O)(N[C@@H]1CCN(C(c2ccncc2)c2cc3c(cc2O)OCO3)C1)C1CC1 (stereo partly drawn) | 99.3 | 577
COc1ccc(C(c2ccncc2)N2CC[C@@H](NC(=O)OC(C)(C)C)C2)c(O)c1 (stereo partly drawn) | 44.3 | –
CC(C)(C)OC(=O)N[C@@H]1CCN(C(c2cccc(-c3cccnc3)c2)c2cc3c(cc2O)OCO3)C1 (stereo partly drawn) | 96.2 | 184
CC(C)(C)OC(=O)N[C@@H]1CCN(C(c2cc3c(cc2O)OCO3)c2ccnc3ccccc23)C1 (stereo partly drawn) | 99.5 | 100
CC(C)(C)OC(=O)N[C@@H]1CCN(C(c2cccc(-n3ccnc3)c2)c2cc3c(cc2O)OCO3)C1 (stereo partly drawn) | 99.7 | 109
COC(=O)c1cccc(C(c2cc3c(cc2O)OCO3)N2CC[C@@H](NC(=O)OC(C)(C)C)C2)c1 (stereo partly drawn) | 98.3 | 499

Compound | inhibition [1] [%] | IC50 [2] [nM]
N[C@@H]1CCN(C(c2ccncc2)c2cc3c(cc2O)OCO3)C1 (stereo partly drawn) | 33.6 | 1750
CC(C)(C)OC(=O)N[C@@H]1CCN(C(c2cncnc2)c2cc3c(cc2O)OCO3)C1 (stereo partly drawn) | 64.4 | –
CC(C)(C)NC(=O)N[C@@H]1CCN(C(c2ccncc2)c2cc3c(cc2O)OCO3)C1 (stereo partly drawn) | 97.2 | 188
COC(=O)c1ccc(C(c2cc3c(cc2O)OCO3)N2CC[C@@H](NC(=O)OC(C)(C)C)C2)cc1 (stereo partly drawn) | 99.4 | 445
Cc1nccn1-c1ccc(C(c2cc3c(cc2O)OCO3)N2CC[C@@H](NC(=O)OC(C)(C)C)C2)cc1 (stereo partly drawn) | 99.8 | 87
COc1ccccc1C(=O)N[C@@H]1CCN(C(c2ccncc2)c2cc3c(cc2O)OCO3)C1 (stereo partly drawn) | 99.1 | 399
CCOc1ccc(C(=O)N[C@@H]2CCN(C(c3ccncc3)c3cc4c(cc3O)OCO4)C2)cc1 (stereo partly drawn) | 97.3 | 170
CC(C)(C)OC(=O)N[C@@H]1CCN(C(c2cc3c(cc2O)OCO3)c2ccc(C#N)cc2F)C1 (stereo partly drawn) | 99.4 | 330
O=C(N[C@H]1CCN(C(c2ccncc2)c2cc3c(cc2O)OCO3)C1)C1CC1 (stereo partly drawn) | 96.6 | 892
CC(C)(C)OC(=O)N[C@@H]1CCN(C(c2ccc(C#N)cn2)c2cc3c(cc2O)OCO3)C1 (stereo partly drawn) | 100 | 45
O=C(O[C@@H]1CCN(C(c2ccncc2)c2cc3c(cc2O)OCO3)C1)C1CC1 (stereo partly drawn) | 98.2 | 586
CC(C)(C)OC(=O)N[C@@H]1CCN(C(c2ccc(-c3ccncc3)nc2)c2cc3c(cc2O)OCO3)C1 (stereo partly drawn) | 97.1 | 165
CC(C)(C)OC(=O)N[C@@H]1CCN(C(c2ccncc2)c2cc3c(cc2O)CCC3)C1 (stereo partly drawn) | -6.01 | –
COc1cc(O)c(C(c2ccncc2)N2CC[C@@H](NC(=O)OC(C)(C)C)C2)cc1OC (stereo partly drawn) | 98.6 | 632
CC(C)(C)OC(=O)N[C@@H]1CCN(C(c2ccc(-c3ccccc3)cc2)c2cc3c(cc2O)OCO3)C1 (stereo partly drawn) | 10.6 | –
COc1cc(C#N)ccc1C(c1cc2c(cc1O)OCO2)N1CC[C@@H](NC(=O)OC(C)(C)C)C1 (stereo partly drawn) | 98.1 | 368
CC(C)(C)OC(=O)N[C@@H]1CCN(C(c2ccncc2)c2ccccc2O)C1 (stereo partly drawn) | 1.9 | –
O=C(N[C@@H]1CCN(C(c2ccncc2)c2cc3c(cc2O)OCO3)C1)c1ccccc1 (stereo partly drawn) | 99.9 | 536
CC(C)(C)OC(=O)N[C@@H]1CCN(C(c2ccc(-n3cncn3)cc2)c2cc3c(cc2O)OCO3)C1 (stereo partly drawn) | 99.7 | 56
O=C(N[C@@H]1CCN(C(c2ccncc2)c2cc3c(cc2O)OCO3)C1)C1CC1 (stereo partly drawn) | 99.8 | 155
CC(C)(C)OC(=O)N[C@@H]1CCN(Cc2cc3c(cc2O)OCO3)C1 | -4.8 | –
